Results on one compound are retold here after paper PMC6053601, “The role of the jaw subdomain of peptidoglycan glycosyltransferases for lipid II polymerization” (The Cell Surface, 2018).

In assay [1] the target is T1, Staphylococcus aureus monofunctional glycosyltransferase (SaMGT) (Staphylococcus aureus, UniProt Q7A0I6, E100Q).
T1 construct: gene mgt
In words: X-ray crystal structure, […] Å (re-refinement of 3HZS, polder omit maps). It is filed as binding.

Assay [2] has as its target T2, Staphylococcus aureus monofunctional glycosyltransferase (SaMGT) (Staphylococcus aureus, UniProt Q7A0I6).
T2 construct: gene mgt; wild-type full-length SaMGT (residues Q28-R269)
As to the kind of experiment: ITC (VP-ITC, […] °C, sequential binding site model).

In the case of `C=C(C/C=C(\C)CCC=C(C)C)CCC(C)(C)/C=C/CC/C(C)=C\CO[C@H](COP(=O)(O)O[C@H]1O[C@H](C(N)=O)[C@@](C)(O)[C@H](OC(N)=O)[C@H]1O[C@@H]1O[C@H](CO[C@@H]2O[C@H](CO)[C@@H](O)[C@H](O)[C@H]2O)[C@@H](O[C@@H]2O[C@H](C)[C@@H](O[C@@H]3O[C@H](C(=O)NC4=C(O)CCC4=O)[C@H](O)[C@H](O)[C@H]3O)[C@H](O)[C@H]2NC(C)=O)[C@H](O)[C@H]1NC(C)=O)C(=O)O` [MoeA, moenomycin A], the “X-ray crystal structure, 2.1 Å (re-refinement of 3HZS, polder omit maps)” value in assay [1] is recorded as “Overall view of the re-refined structure of SaMGT E100Q mutant with bound MoeA (PDB ID code 6FTB)”. This compound came in with a Kd in assay [2] of 540 nM.

In general, Kd refers to the free concentration of one partner at which half of the binding sites on the other are occupied at equilibrium, for simple one-to-one binding. The low end stands for a tighter complex, the high end for a looser complex.
